The record followed here is patent publication US9512141B2, “Pyrazine derivatives as CB2 receptor agonists” (Hoffmann-La Roche Inc., priority 2012, dated 2016).

Like-named read-outs stand apart in the source and are kept apart here.

One experiment addresses human CB1 receptors (Homo sapiens (Human), UniProt P21554). As to the kind of experiment: cAMP assay (functional), CHO cells expressing human CB1 receptors. Format: cell-based. Here is the method:
(§1) CHO cells expressing human CB1 or CB2 receptors are seeded 17-24 hours prior to the experiment 50.000 cells per well in a black 96 well plate with flat clear bottom (Corning Costar #3904) in DMEM (Invitrogen No. 31331), 1×HT supplement, with 10% fetal calf serum and incubated at 5% CO2 and 37° C. in a humidified incubator. The growth medium was exchanged with Krebs Ringer Bicarbonate buffer with 1 mM IBMX and incubated at 30° C. for 30 min. Compounds were added to a final assay volume of 100 μl and incubated for 30 min at 30° C. Using the cAMP-Nano-TRF detection kit the assay (Roche Diagnostics) was stopped by the addition of 50 μl lysis reagent (Tris, NaCl, 1.5% Triton X100, 2.5% NP40, 10% NaN3) and 50 μl detection solutions (20 μM mAb Alexa700-cAMP 1:1, and 48 μM Ruthenium-2-AHA-cAMP) and shaken for 2 h at room temperature. The time-resolved energy transfer is measured by a TRF reader (Evotec Technologies GmbH), equipped with a ND:YAG laser as excitation source. The plate is measured twice with the excitation at 355 nm and at the emission with a delay of 100 ns and a gate of 100 ns, total exposure time 10 s at 730 (bandwidth 30 nm) or 645 nm (bandwidth 75 nm), respectively. The FRET signal is calculated as follows: FRET=T730-Alexa730-P (T645-B645) with P=Ru730-B730/Ru645-B645, where T730 is the test well measured at […], T645 is the test well measured at 645 nm, B730 and B645 are the buffer controls at 730 nm and 645 nm, respectively. cAMP content is determined from the function of a standard curve spanning from 10 μM to 0.13 nM cAMP.
(§2) EC50 values were determined using Activity Base analysis (ID Business Solution, Limited). The EC50 values for a wide range of cannabinoid agonists generated from this assay were in agreement with the values published in the scientific literature.
For orientation: cAMP levels reflect the balance of adenylyl cyclase and phosphodiesterase activity.

The target of a further experiment is human CB2 receptors (Homo sapiens (Human), UniProt P34972). Description: cAMP assay (functional), CHO cells expressing human CB2 receptors. It counts as cell-based. Here is the method: as §1, §2
Sequence of human CB2 receptors (P34972 whole entry): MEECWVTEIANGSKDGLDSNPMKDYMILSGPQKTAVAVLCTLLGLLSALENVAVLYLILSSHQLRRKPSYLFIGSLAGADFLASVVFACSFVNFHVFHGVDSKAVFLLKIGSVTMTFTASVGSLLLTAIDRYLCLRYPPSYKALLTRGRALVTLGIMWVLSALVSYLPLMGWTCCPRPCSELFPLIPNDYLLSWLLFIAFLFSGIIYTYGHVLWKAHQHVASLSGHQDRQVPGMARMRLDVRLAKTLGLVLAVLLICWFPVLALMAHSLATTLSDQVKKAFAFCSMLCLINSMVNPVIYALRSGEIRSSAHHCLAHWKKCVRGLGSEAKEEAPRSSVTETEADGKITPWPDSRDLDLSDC
The mark [1] stands for this setting: functional cAMP assay, CHO cells expressing human CB1, read-out: human CB1 EC50.
The mark [2] stands for this setting: functional cAMP assay, CHO cells expressing human CB2, read-out: human CB2 EC50.

Sequence of human CB1 receptors (P21554 whole entry): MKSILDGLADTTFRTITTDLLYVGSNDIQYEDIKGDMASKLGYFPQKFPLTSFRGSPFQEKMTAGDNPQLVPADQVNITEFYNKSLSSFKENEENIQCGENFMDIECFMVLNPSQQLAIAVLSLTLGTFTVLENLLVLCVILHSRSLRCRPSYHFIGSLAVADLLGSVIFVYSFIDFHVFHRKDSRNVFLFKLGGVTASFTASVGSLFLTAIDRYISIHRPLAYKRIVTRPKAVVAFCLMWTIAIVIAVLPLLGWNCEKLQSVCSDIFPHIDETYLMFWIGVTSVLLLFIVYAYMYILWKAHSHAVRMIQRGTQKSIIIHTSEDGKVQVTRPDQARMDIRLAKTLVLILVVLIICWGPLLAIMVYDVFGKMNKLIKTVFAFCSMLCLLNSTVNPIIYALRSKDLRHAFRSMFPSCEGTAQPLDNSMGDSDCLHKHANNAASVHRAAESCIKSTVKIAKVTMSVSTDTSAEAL

In general, EC50 refers to the concentration that produces a half-maximal response. As for `O=C(c1cnc(N2CC(F)(F)C2)c(OCC2CC2)n1)N1CC2CC1CO2` (stereo not shown) [Example 6, [6-Cyclopropylmethoxy-5-(3,3-difluoro-azetidin-1-yl)-pyrazin-2-yl]-2-oxa-5-aza-bicyclo[2.2.1]hept-5-yl-methanone], the concentration for a half-maximal effect (EC50) is over 10000 nM on human CB1 receptors (setting [1]) and 257 nM on human CB2 receptors (setting [2]).

In the case of `CC(=O)O[C@H]1CCN(C(=O)c2cnc(N3CC(F)(F)C3)c(OCC3CC3)n2)C1` [Example 27, Acetic acid (S)-1-[6-cyclopropylmethoxy-5-(3,3-difluoro-azetidin-1-yl)-pyrazine-2-carbonyl]-pyrrolidin-3-yl ester], the 50% effective concentration (EC50) at human CB1 receptors (setting [1]) was over 10000 nM; on human CB2 receptors (setting [2]), 271 nM.

Consider `CN(C(=O)c1cnc(N2CC(F)(F)C2)c(OCC2CC2)n1)C(C)(C)C` [Example 7, 6-Cyclopropylmethoxy-5-(3,3-difluoro-azetidin-1-yl)-pyrazine-2-carboxylic acid tert-butyl-methyl-amide], for which the figures for the EC50 on human CB1 receptors (setting [1]) and at human CB2 receptors (setting [2]) were over 10000 nM and 3.2 nM, respectively.

Regarding `CN(C)C(=S)[C@H]1CCCN1C(=O)c1cnc(N2CC(F)(F)C2)c(OCC2CC2)n1` [Example 24, (R)-1-[6-Cyclopropylmethoxy-5-(3,3-difluoro-azetidin-1-yl)-pyrazine-2-carbonyl]-pyrrolidine-2-carbothioic acid dimethylamide], the EC50 is over 10000 nM at human CB1 receptors (setting [1]) and 333 nM on human CB2 receptors (setting [2]).

For `O=C(c1cnc(N2CC(F)(F)C2)c(OCC2CC2)n1)N1CCC2(COC2)C1` [Example 28, [6-Cyclopropylmethoxy-5-(3,3-difluoro-azetidin-1-yl)-pyrazin-2-yl]-(2-oxa-6-aza-spiro[3.4]oct-6-yl)-methanone], the concentration for a half-maximal effect (EC50) on human CB1 receptors (setting [1]) was over 10000 nM; at human CB2 receptors (setting [2]), 204 nM.

As for `NC(=O)C1CCCCN1C(=O)c1cnc(N2CC(F)(F)C2)c(OCC2CC2)n1` (stereo not shown) [Example 33, 1-[6-Cyclopropylmethoxy-5-(3,3-difluoro-azetidin-1-yl)-pyrazine-2-carbonyl]-piperidine-2-carboxylic acid amide], the EC50 at human CB1 receptors (setting [1]) was over 10000 nM; on human CB2 receptors (setting [2]) it was 330 nM.

With `CC1(O)C[C@@H](C(N)=O)N(C(=O)c2cnc(N3CC(F)(F)C3)c(OCC3CC3)n2)C1` (stereo partly drawn) [Example 41, (2S)-1-[6-(Cyclopropylmethoxy)-5-(3,3-difluoroazetidin-1-yl)pyrazine-2-carbonyl]-4-hydroxy-4-methylpyrrolidine-2-carboxamide], the results for the EC50 at human CB1 receptors (setting [1]) and on human CB2 receptors (setting [2]) were over 10000 nM and 90 nM, respectively.

Take `CC1(C)CCCN1C(=O)c1cnc(N2CC(F)(F)C2)c(OCC2CC2)n1` [Example 21, [6-Cyclopropylmethoxy-5-(3,3-difluoro-azetidin-1-yl)-pyrazin-2-yl]-(2,2-dimethyl-pyrrolidin-1-yl)-methanone]: the results for the concentration giving a half-maximal response (EC50) at human CB1 receptors (setting [1]) and on human CB2 receptors (setting [2]) were over 10000 nM and 4.3 nM, respectively.

For `CC(=O)OC1(C)CCN(C(=O)c2cnc(N3CC(F)(F)C3)c(OCC3CC3)n2)C1` (stereo not shown) [Example 29, Acetic acid 1-[6-cyclopropylmethoxy-5-(3,3-difluoro-azetidin-1-yl)-pyrazine-2-carbonyl]-3-methyl-pyrrolidin-3-yl ester], the values for the concentration for a half-maximal effect (EC50) at human CB1 receptors (setting [1]) and on human CB2 receptors (setting [2]) were over 10000 nM and 8.8 nM, respectively.

In the case of `C[C@@H]1CCCN1C(=O)c1cnc(N2CC(F)(F)C2)c(OCC2CC2)n1` [Example 2, [6-Cyclopropylmethoxy-5-(3,3-difluoro-azetidin-1-yl)-pyrazin-2-yl]-((R)-2-methyl-pyrrolidin-1-yl)-methanone], the EC50 was over 10000 nM at human CB1 receptors (setting [1]) and 4.9 nM at human CB2 receptors (setting [2]).

Consider `NC(=O)C1CC2(CC2)CN1C(=O)c1cnc(N2CC(F)(F)C2)c(OCC2CC2)n1` (racemic) [Example 40, (±)-5-[6-(Cyclopropylmethoxy)-5-(3,3-difluoroazetidin-1-yl)pyrazine-2-carbonyl]-5-azaspiro[2.4]heptane-6-carboxamide], for which the figures for the concentration giving a half-maximal response (EC50) at human CB1 receptors and on human CB2 receptors were over 10000 nM and 39 nM, respectively.

As for `CC1(C)CCCN1C(=O)c1cnc(N2CC(F)(F)C2)c(OCC(F)(F)F)n1` [Example 32, [5-(3,3-Difluoro-azetidin-1-yl)-6-(2,2,2-trifluoro-ethoxy)-pyrazin-2-yl]-(2,2-dimethyl-pyrrolidin-1-yl)-methanone], the EC50 was over 10000 nM at human CB1 receptors (setting [1]) and 81.2 nM on human CB2 receptors (setting [2]).

For `NC(=O)C1CCCCN1C(=O)c1cnc(N2CC(F)(F)C2)c(OCC2CC2)n1` (single isomer, unassigned; (-)) [Example 36, (−)-1-[6-Cyclopropylmethoxy-5-(3,3-difluoro-azetidin-1-yl)-pyrazine-2-carbonyl]-piperidine-2-carboxylic acid amide], the EC50 on human CB1 receptors (setting [1]) was over 10000 nM; on human CB2 receptors (setting [2]), 217 nM.

Consider `CN(C(=O)c1cnc(N2CC(F)(F)C2)c(OCC(F)(F)F)n1)C(C)(C)C` [Example 31, 5-(3,3-Difluoro-azetidin-1-yl)-6-(2,2,2-trifluoro-ethoxy)-pyrazine-2-carboxylic acid tert-butyl-methyl-amide], for which the EC50 on human CB1 receptors (setting [1]) is over 10000 nM; on human CB2 receptors (setting [2]), 130 nM.
